The values below come from the supplement of paper PMC7224384.

For assay [1], the system named is MDA-MB-453. Description: drug sensitivity score (DSS), in combination with BLU9931 (DSS (weighted AUC score)); higher = more sensitive (stronger viability decrease); extreme values may be limits of the assay. The note with it: BLU9931 100 nM; 72 h. The method in brief:
(§1)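 Cells of the MDA-MB-453 line (2000 per well) were added in medium, with or without 100 nM final FGFR4 inhibitor, to 384-well plates predispensed with FIMM Oncology set compounds at five 10-fold dilutions covering a 10,000-fold range. After 72 h at 37 °C, 5% CO2, CellTiterGlo 2.0 read cellular ATP. Percent viability came from per-plate normalisation to control wells, and the drug sensitivity score was defined as a weighted area under a four-parameter logistic fit.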

The subject of assay [2] is MDA-MB-453. Description: drug sensitivity score (DSS), single agent (DSS (weighted AUC score)); higher = more sensitive (stronger viability decrease); extreme values may be limits of the assay. To be noted: BLU9931 0 nM; 72 h. In a few lines:
as §1

`CC[C@H](CO)Nc1nc(NCc2ccccc2)c2ncn(C(C)C)c2n1` [Seliciclib]: the figures for the drug sensitivity score in assay [1] and in assay [2] were 0.2 and 0, respectively.

Consider `O=C(/C=C\n1cnc(-c2cc(C(F)(F)F)cc(C(F)(F)F)c2)n1)NNc1cnccn1` [Selinexor], for which the drug sensitivity score in assay [1] stood at 9.5; in assay [2] it was 9.6.

For `Cc1cc(F)c(C(=O)Nc2cccc(-c3nncn3C(C)C)n2)cc1-n1cnc(C2CC2)c1` [Selonsertib], the drug sensitivity score in assay [1] and in assay [2] was 0 throughout.

As for `Cn1cnc2c(F)c(Nc3ccc(Br)cc3Cl)c(C(=O)NOCCO)cc21` [Selumetinib], the drug sensitivity score in assay [1] and in assay [2] was 0.7 throughout.

In the case of `CN1CCN(C(=O)c2ccc3cc(CCNc4ncnc5ccc(C#N)cc45)ccc3c2)CC1` [Senexin B], the drug sensitivity score amounted to 1.3 in assay [1] and 2.4 in assay [2].

In the case of `COCC[n+]1c2c(n(Cc3cnccn3)c1C)C(=O)c1ccccc1C2=O` [Sepantronium bromide], the drug sensitivity score in assay [1] is 33.2; in assay [2], 32.9.

`Nc1nc2cc(-c3ccc4ncc(C(=O)N5CCOCC5)n4c3)ccc2o1` [Serabelisib]: the drug sensitivity score in assay [1] was determined as 9.8; in assay [2], 7.8.

As for `O=C(O)c1ccc2c(c1)nc(Nc1cccc(Cl)c1)c1ccncc12` [Silmitasertib], the drug sensitivity score in assay [1] was found to be 7.6; in assay [2] it was 8.1.

Regarding `CCC(C)(C)C(=O)O[C@H]1C[C@@H](C)C=C2C=C[C@H](C)[C@H](CC[C@@H]3C[C@@H](O)CC(=O)O3)[C@H]21` [Simvastatin], the drug sensitivity score in assay [1] is 0.1; in assay [2], 0.

In the case of `CO[C@H]1C[C@@H]2CC[C@@H](C)[C@@](O)(O2)C(=O)C(=O)N2CCCC[C@H]2C(=O)O[C@H]([C@H](C)C[C@@H]2CC[C@@H](O)[C@H](OC)C2)CC(=O)[C@H](C)/C=C(\C)[C@@H](O)[C@@H](OC)C(=O)[C@H](C)C[C@H](C)/C=C/C=C/C=C/1C` [Sirolimus], the results for the drug sensitivity score in assay [1] and in assay [2] were 10.5 and 5.1, respectively.

On to `COCCNCc1ccc(-c2cc3nccc(Oc4ccc(NC(=O)C5(C(=O)Nc6ccc(F)cc6)CC5)cc4F)c3s2)nc1` [Sitravatinib], for which the drug sensitivity score in assay [1] was found to be 0; in assay [2] it was 0.6.

For the molecule `Cc1c(C(=O)Nc2ccc(N3C[C@@H](C)O[C@@H](C)C3)nc2)cccc1-c1ccc(OC(F)(F)F)cc1` [Sonidegib], the values for the drug sensitivity score in assay [1] and in assay [2] were 1.4 and 5.8, respectively.

Take `C=CCN(/C=C1/C(=O)O[C@H](COC)[C@@]2(C)C1=C(O)C(=O)C1=C2[C@H](OC(C)=O)C[C@]2(C)C(=O)CC[C@@H]12)CC=C` [Sonolisib]: the drug sensitivity score in assay [1] and in assay [2] was 0 throughout.

On to `CNC(=O)c1cc(Oc2ccc(NC(=O)Nc3ccc(Cl)c(C(F)(F)F)c3)cc2)ccn1` [Sorafenib], for which the drug sensitivity score in assay [1] and in assay [2] was 0 in each case.

As to `CN1CCN(c2nc(C3=C(c4c[nH]c5ccccc45)C(=O)NC3=O)c3ccccc3n2)CC1` [Sotrastaurin], the values for the drug sensitivity score in assay [1] and in assay [2] were 1 and 2.5, respectively.

As for `C=CC(=O)Nc1cccc(Nc2nc(Nc3ccc(OCCOC)cc3)ncc2F)c1` [Spebrutinib], the drug sensitivity score in assay [1] is 0.9; in assay [2] it was 0.7.

Turning to `CC(C)n1cnc2c(NCCc3ccc(O)cc3)nc(-c3csc4ccccc34)nc21` [StemRegenin 1], the drug sensitivity score in assay [1] was 0.4; in assay [2], 0.3.

For the molecule `CCN(CC)CCNC(=O)c1c(C)[nH]c(/C=C2\C(=O)Nc3ccc(F)cc32)c1C` [Sunitinib], the values for the drug sensitivity score in assay [1] and in assay [2] were 0 and 0.2, respectively.

With `CC(C)(O)CC(=O)NCCn1ccc2ncnc(Nc3ccc(Oc4cccc(C(F)(F)F)c4)c(Cl)c3)c21` [TAK-285], the results for the drug sensitivity score in assay [1] and in assay [2] were 6.4 and 5.4, respectively.

As for `CCS(=O)(=O)c1cccc(-c2cc(C(=O)NC3CCN(C)CC3)c(C)c3[nH]c4ncc(C)cc4c23)c1` [TAK-901], the drug sensitivity score in assay [1] amounted to 3; in assay [2], 2.7.

Consider `Cc1cccc(-c2[nH]c(CNc3ccccc3F)nc2-c2ccc3ncnn3c2)n1` [TEW-7197], for which the drug sensitivity score in assay [1] turned out to be 1.8; in assay [2], 5.2.

Take `Nc1nc(N)c2nc(-c3cccc(O)c3)c(-c3cccc(O)c3)nc2n1` [TG100-115]: the drug sensitivity score in assay [1] is 5.9; in assay [2], 5.1.

In the case of `CC(C)Oc1ccc(-c2nn([C@@H](C)c3oc4ccc(F)cc4c(=O)c3-c3cccc(F)c3)c3ncnc(N)c23)cc1F` [TGR-1202], the drug sensitivity score in assay [1] turned out to be 0; in assay [2] it was 0.7.

With `Cc1cc(C(C)Nc2ccccc2)c2nc(N3CCOCC3)cc(=O)n2c1` (configuration not stated) [TGX-221], the drug sensitivity score is 3.2 in assay [1] and 2.6 in assay [2].

For `Nc1nc(NC2CC2)cc(-c2cccc(Cl)c2Cl)n1` [TH588], the drug sensitivity score in assay [1] is 1.7; in assay [2] it was 2.4.

`Clc1ccccc1C(c1ccccc1)(c1ccccc1)n1cccn1` [TRAM-34]: the drug sensitivity score in assay [1] amounted to 0.6; in assay [2], 1.6.

Take `CC(=O)Nc1ccc(C(=O)Nc2ccccc2N)cc1` [Tacedinaline]: the results for the drug sensitivity score in assay [1] and in assay [2] were 0.4 and 1.3, respectively.

`C=CC[C@@H]1/C=C(\C)C[C@H](C)C[C@H](OC)[C@H]2O[C@@](O)(C(=O)C(=O)N3CCCC[C@H]3C(=O)O[C@H](/C(C)=C/[C@@H]3CC[C@@H](O)[C@H](OC)C3)[C@H](C)[C@@H](O)CC1=O)[C@H](C)C[C@@H]2OC` [Tacrolimus]: the drug sensitivity score came to 0.8 in assay [1] and 2.2 in assay [2].

As for `CN(C(=O)c1ccc(F)cc1C(F)(F)F)C1CCN(c2nnc(-c3ccnn3C)c3ccccc23)CC1` [Taladegib], the figures for the drug sensitivity score in assay [1] and in assay [2] were 1.1 and 1.6, respectively.

On to `Cn1ncnc1[C@H]1c2n[nH]c(=O)c3cc(F)cc(c23)N[C@@H]1c1ccc(F)cc1` [Talazoparib], for which the drug sensitivity score in assay [1] was 3.1; in assay [2] it was 1.7.

Regarding `C[C@@H]1CN(Cc2ccc(F)cc2)[C@@H](C)CN1C(=O)c1cc2c(C(=O)C(=O)N(C)C)cn(C)c2cc1Cl` [Talmapimod], the drug sensitivity score in assay [1] and in assay [2] was 0 each time.

In the case of `COc1cc(Nc2ncc(F)c(Nc3ccc4c(n3)NC(=O)C(C)(C)O4)n2)cc(OC)c1OC` [Tamatinib], the drug sensitivity score in assay [1] and in assay [2] was 0 in each case.

For `CC/C(=C(\c1ccccc1)c1ccc(OCCN(C)C)cc1)c1ccccc1` [Tamoxifen], the drug sensitivity score amounted to 2.4 in assay [1] and 5.3 in assay [2].

For the molecule `COc1cc2c(N3CCN(C(=O)Nc4ccc(OC(C)C)cc4)CC3)ncnc2cc1OCCCN1CCCCC1` [Tandutinib], the drug sensitivity score in assay [1] and in assay [2] was 0 throughout.

For the molecule `O[C@H]1CC[C@H](Nc2ncc3nc(Nc4c(F)cc(F)cc4F)n([C@H]4CCOC4)c3n2)CC1` [Tanzisertib], the drug sensitivity score in assay [1] and in assay [2] was 0 in each case.

As to `C[C@@H](C(=O)O)c1ccc(-c2ccccc2)c(F)c1` [Tarenflurbil], the drug sensitivity score in assay [1] and in assay [2] was 0 throughout.
